This note sets out measurements from patent US20110288036A1, “Methods for Treating or Preventing Vascular Graft Failure” (priority 2010, published 2011).

Data set [1] deals with human smooth muscle cell (SMC). In words: MTS cell proliferation assay, smooth muscle cells. Format: cell-based. Particulars: pre-treatment 20 ng/ml TNF-α. The procedure:
Primary human aortic endothelial cells (HAEC) and primary human aortic smooth muscle cells (HASMC) were obtained from Invitrogen; primary human coronary artery endothelial cells (HCAEC) were obtained from Lonza.
All cultures were maintained in 25 cm^2 polystyrene tissue culture flasks in a 37° C., 5% CO2/95% air environment, with cell culture media refreshed every other day. All cells were seeded at a density of 20,000˜30,000 cells/cm^2, as required by the specific experiment, and allowed to grow to 80-90% confluence before being harvested/passaged. Only cells from early passages (numbers 2-8) were utilized in experiments.
The CellTiter 96® AQueous Non-Radioactive Cell Proliferation Assay (Promega) was used to assess drug effects on cell proliferation according to the manufacturer's instructions. Briefly, HAECs and HASMCs from early passages were grown to 80-90% confluence in 25 cm^2 tissue culture flasks in a 37° C./5% CO2 incubator prior to harvest. 200 μl of each type of cell suspension (at 20,000 cells/cm^2) was seeded onto separate 96-well plates to yield an approximate 60% confluence per well. Cells were allowed to adhere to the plate surface overnight, followed by addition of 20 ng/ml of TNF-α to stimulate production of inflammatory agents. After a 4-6 hour incubation period, MMI-0100 peptide drug ([…]; SEQ ID NO: 1) was added and cells incubated for another 20-24 hours. Each well was then supplemented with 100 μl of fresh medium and 20 μl of CellTiter 96® AQueous One Solution Reagent and incubated for an additional 1.5-2 hours prior to measuring absorbance of each well at 490 nm with a SoftMax®-equipped plate reader.
In order to determine the effect of pharmacological doses of MMI-0100 ([…]; SEQ ID NO: 1) on human endothelial cell (EC) and smooth muscle cell (SMC) proliferation, human EC and SMC cultures were treated with three concentrations (0.25 mM, 0.5 mM, and 1 mM) of MMI-0100 ([…] (SEQ ID NO: 1)) following pre-treatment with TNF-α.

Data set [2] is described as follows: Observation of toxicity, tissue erosion or necrosis.
The subject of data set [3] is mouse lung endothelial cells (MLEC). In words: MCP-1 immunoassay of MLEC conditioned medium. Format: cell-based. Particulars: even at high doses. As for the experimental part: Monocyte Chemotractic Protein-1 (MCP-1) production from mouse lung endothelial cells (MLEC) was analyzed using conditioned culture medium by Quantikine® Mouse CCL/JE/MCP-1 Immunoassay (R&D Systems) following the manufacturer's instructions. Briefly, the assay employs a quantitative sandwich enzyme immunoassay technique in which a monoclonal antibody specific for MCP-1 has been pre-coated onto a microplaste. Standards and samples are pipetted into the wells and any MCP-1 present is bound by the immobilized antibody. After washing away any unbound substances, an enzyme-linked polyclonal antibody specific for MCP-1 is added to the wells. Following a wash to remove any unbound antibody-enzyme reagent, a substrate solution is added to the wells and color develops in proportion to the amount of MCP-1 bound in the initial step. The color development is stopped and the intensity of the color is measured at 450 nm, with wavelength correction at 540 nm or 570 nm.

Data set [4] deals with T1, MEK1 (Homo sapiens, UniProt Q02750).
T1 construct: purchased Millipore (KinaseProfiler service)
In words: MEK1 radiometric kinase assay. Format: biochemical. Particulars: peptide 100 μM. An excerpt:
A commercial radiometric assay service was used to test the specificity and potency of MMI-0100 ([…]; SEQ ID NO: 1) by measuring its half maximal inhibitory concentrations (IC50). This quantitative assay measures how much MK2 inhibitor (MMI-0100; […] (SEQ ID NO: 1)) is needed to inhibit 50% of a given biological process or component of a process (i.e., an enzyme, cell, or cell receptor). Specifically, in these assays, a positively charged substrate is phosphorylated with a radiolabeled phosphate group from an ATP if the kinase is not inhibited by an inhibitor peptide. The positively charged substrate then is attracted to a negatively charged filter membrane, quantified with a scintillation counter, and compared to a 100% activity control. ATP concentrations within 15 μM of the apparent Km for ATP were chosen since an ATP concentration near the Km may allow for the kinases to have the same relative amount of phosphorylation activity. The individual conditions for each radiometric assay are as follows.
The reaction was initiated by adding the MgATP. After incubation for 40 minutes at room temperature, 5 μl of this incubation mix was used to initiate the MAPK2 radiometric assay whose reaction condition was the same as the condition for p38 MAPK assay described above.
IC50 values for inhibitor peptides were determined using Millipore's IC50 Profiler Express service. […]

For YARAAARQARAKALARQLGVAA [MMI-0100], the “SMC proliferation vs TNF-α alone control” value in data set [1] (0.25 mM) is recorded as “slightly increased cell proliferation”. Also, the “increase in SMC proliferation vs TNF-α alone control” value in data set [1] (0.5 mM) is 12%; in data set [1] (1 mM) it was 7%. In addition, in data set [2], the “evidence of toxicity, tissue erosion, or necrosis” value was “did not show any evidence of toxicity, tissue erosion, or necrosis”. The MCP-1 production entry in data set [3] was “did not stimulate MCP-1 production, even at high doses”. For the same sequence, in data set [4], the “Percent Activity, MEK1” value is 68%.
